According to patent US9926304B2, “1-(arylmethyl)quinazoline-2,4(1H,3H)-diones as PARP inhibitors and the use thereof” (Impact Therapeutics, Inc., priority 2011, dated 2018):

Tests used:
[1] = system: Human breast cancer cell line T47D; test: Cell based caspase-3 activity assay: potentiation of MMS induced apoptosis; details: Homo sapiens, T47D, 24 h, T47D cells, 11.1 μg/ml MMS, 24 hours, intracellular caspase-3 activity; read-out: EC50 (nM), potentiation of the apoptosis inducing activity of MMS
Outline: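 T47D cells were exposed for 24 h to compound plus a minimally apoptotic MMS dose (medium containing 11.1 μg/ml MMS). Lysates were incubated 3 h at 37 °C with (Ac-DEVD)2-R110 caspase-3 substrate (20 μM in added buffer) and read at ex 496/em 520 nm. EC50 came from a sigmoidal fit of RFU versus log concentration.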

[2] = system: BRCA-2 deficient CAPAN-1 human pancreatic cancer cells; test: MTT based cell viability assay: growth inhibition of BRCA-2 deficient CAPAN-1 cells; details: 240 h, compound alone, 10 day assay
Source text: Determination of the cell growth inhibiting activity of 1-(3-(4-(pyrimidin-2-yl)piperazine-1-carbonyl)benzyl)quinazoline-2,4(1H,3H)-dione and analogs on BRCA-2 deficient CAPAN-1 pancreatic duck cancer cells using a MTT based cell viability assay
BRCA-deficient cancer cells are sensitive to PARP inhibition. In the presence of PARP inhibitors, BRCA-deficient cancer cells could not grow and eventually will lead to death of cells. BRCA-2 deficient CAPAN-1 human pancreatic cancer cells were used to test the growth inhibiting activity of substituted 1-(arylmethyl)quinazoline-2,4(1H,3H)-diones. Briefly, CAPAN-1 cells are grown and maintained in IMEM medium supplemented with 20% FBS. The assay takes 10 days to finish. On day 1, 6000 CAPAN-1 cells are seeded to each well of a 96-well plate. The cells are incubated at 37° C. in a cell culture incubator overnight. In the next day, serial dilutions of compounds to be tested and reference compound (AZD2281) were prepared with a 1:3 and 1:10 fashion in DMSO. Ten-fold compound solutions were made by mixing 10 μl DMSO serial dilution solutions with 90 μl fresh growth medium. The cell culture medium was removed and 180 μl fresh media with FBS and 20 μl of compound solutions were added to each well. The final concentration of DMSO was 1%. Cells were then returned to the CO2 cell culture incubator and incubated at 37° C. for two days (day 3 and day 4). On day 5, the same procedure as what was done on day 2 was repeated. Cell culture medium was removed and fresh medium containing serial dilutions of compounds or reference compounds were added. Cells were returned to the CO2 cell culture incubator and incubated for two more days. On day 8, same procedure was repeated again and fresh medium containing the testing compounds or reference compounds were added and incubated for an additional 2 days. On day 10, 20 μl of MTT reagent (5 mg/ml) was added to each well of the cell culture plate and incubated for 4 h. The cell culture media was removed and 100 μl DMSO was added to each well. The 96-well cell culture plates were shaked horizontally for 10 min and readed in a Varioskan Flash plate reader (Thermo Fisher Scientific) at 520 and 690 nm. The obtained 520 nm absorbance readings subtracting corresponding 690 nm reading were analyzed using a commercial graphic software (GraphPad Prism 5) and plotted against the Log scale of the compound concentrations.

[3] = system: SW620 human colorectal cancer cells; test: MTT based cell viability assay: potentiation of the growth inhibiting activity of MMS; details: Homo sapiens, SW-620, 120 h, read-out: IC50 (nM), potentiation of the growth inhibiting activity of MMS, SW620 cells, 1.7 μg/ml MMS, 5 days (120 hours), MTT

EC50 [1]	IC50 [2]	IC50 [3]	Compound
3 nM	56 nM	0.72 nM	O=C(c1cc(Cn2c(=O)[nH]c(=O)c3cc(Cl)ccc32)ccc1F)N1CCN(C(=O)C2CCCCC2)CC1 [Example 119, 6-Chloro-1-(3-(4-(cyclohexylcarbonyl)piperazine-1-carbonyl)-4-fluorobenzyl)quinazoline-2,4(1H,3H)-dione]
5.1 nM	121 nM	13 nM	O=C(c1ccc(F)c(Cn2c(=O)[nH]c(=O)c3cc(F)ccc32)c1)N1CCN(C(=O)C2CCCCC2)CC1 [Example 152, 1-(3-(4-(Cyclohexylcarbonyl)piperazine-1-carbonyl)-6-fluorobenzyl)-6-fluoroquinazoline-2,4(1H,3H)-dione]
3.1 nM	54 nM	0.82 nM	O=C(c1cc(Cn2c(=O)[nH]c(=O)c3cc(Cl)ccc32)ccc1F)N1CCN(C(=O)C2CCCC2)CC1 [Example 118, 6-Chloro-1-(3-(4-(cyclopentylcarbonyl)piperazine-1-carbonyl)-4-fluorobenzyl)quinazoline-2,4(1H,3H)-dione]
7.6 nM	291 nM	25 nM	Cc1ccc2c(c1)c(=O)[nH]c(=O)n2Cc1ccc(F)c(C(=O)N2CCN(C(=O)C3CCCC3)CC2)c1 [Example 85, 1-(3-(4-(Cyclopentylcarbonyl)piperazine-1-carbonyl)-4-fluorobenzyl)-6-methylquinazoline-2,4(1H,3H)-dione]
20 nM	400 nM	149 nM	O=C(c1cccc(Cn2c(=O)[nH]c(=O)c3ccccc32)c1)N1CCN(C(=O)C2CCCCC2)CC1 [Example 26, 1-(3-(4-(Cyclohexylcarbonyl)piperazine-1-carbonyl)benzyl)quinazoline-2,4(1H,3H)-dione]
21 nM	746 nM	72 nM	Cc1ccc2c(c1)c(=O)[nH]c(=O)n2Cc1ccc(F)c(C(=O)N2CCN(c3ncccn3)CC2)c1 [Example 83, 1-(4-Fluoro-3-(4-(pyrimidin-2-yl)piperazine-1-carbonyl)benzyl)-6-methylquinazoline-2,4(1H,3H)-dione]
2.1 nM	22 nM	4.1 nM	O=C(c1cc(Cn2c(=O)[nH]c(=O)c3c(F)cccc32)ccc1F)N1CCN(C(=O)C2CCCC2)CC1 [Example 133, 1-(3-(4-(Cyclopentylcarbonyl)piperazine-1-carbonyl)-4-fluorobenzyl)-5-fluoroquinazoline-2,4(1H,3H)-dione]
26 nM	202 nM	18 nM	O=C(c1ccc(F)c(Cn2c(=O)[nH]c(=O)c3c(F)cccc32)c1)N1CCN(C(=O)C2CCCCC2)CC1 [Example 157, 1-(3-(4-(Cyclohexylcarbonyl)piperazine-1-carbonyl)-6-fluorobenzyl)-5-fluoroquinazoline-2,4(1H,3H)-dione]
3.8 nM	137 nM	9.9 nM	O=C(c1ccc(F)c(Cn2c(=O)[nH]c(=O)c3cc(Cl)ccc32)c1)N1CCN(C(=O)C2CCCC2)CC1 [Example 124, 6-Chloro-1-(3-(4-(cyclopentylcarbonyl)piperazine-1-carbonyl)-6-fluorobenzyl)quinazoline-2,4(1H,3H)-dione]
29 nM	1740 nM	182 nM	O=C(c1cc(Cn2c(=O)[nH]c(=O)c3ccccc32)ccc1F)N1CCN(C(=O)C2CC2)CC1 [Example 40, 1-(3-(4-(Cyclopropylcarbonyl)piperazine-1-carbonyl)-4-fluorobenzyl)quinazoline-2,4(1H,3H)-dione]
4.7 nM	45 nM	5.8 nM	O=C(c1cc(Cn2c(=O)[nH]c(=O)c3c(F)cccc32)ccc1F)N1CCN(C(=O)C2CCCCC2)CC1 [Example 134, 1-(3-(4-(Cyclohexylcarbonyl)piperazine-1-carbonyl)-4-fluorobenzyl)-5-fluoroquinazoline-2,4(1H,3H)-dione]

Continued, compound first:

Compound	EC50 [1]	IC50 [2]	IC50 [3]
O=C(c1ccc(F)c(Cn2c(=O)[nH]c(=O)c3ccccc32)c1)N1CCN(c2ncccn2)CC1 [Example 50, 1-(6-Fluoro-3-(4-(pyrimidin-2-yl)piperazine-1-carbonyl)benzyl)quinazoline-2,4(1H,3H)-dione]	13 nM	173 nM	37 nM
O=C(c1cc(Cn2c(=O)[nH]c(=O)c3cc(F)ccc32)ccc1F)N1CCN(c2nccs2)CC1 [Example 188, 6-Fluoro-1-(4-fluoro-3-(4-(thiazol-2-yl)piperazine-1-carbonyl)benzyl)quinazoline-2,4(1H,3H)-dione]	–	472 nM	7.8 nM
O=C(c1cccc(Cn2c(=O)[nH]c(=O)c3cc(F)ccc32)n1)N1CCN(c2ncccn2)CC1 [Example 199, 6-Fluoro-1-((2-(4-(pyrimidin-2-yl)piperazine-1-carbonyl)pyridin-6-yl)methyl)quinazoline-2,4(1H,3H)-dione]	4.9 nM	948 nM	19 nM
O=C(c1cccc(Cn2c(=O)[nH]c(=O)c3ccccc32)n1)N1CCN(c2ccccn2)CC1 [Example 70, 1-((2-(4-(Pyridin-2-yl)piperazine-1-carbonyl)pyridin-6-yl)methyl)quinazoline-2,4(1H,3H)-dione]	34 nM	339 nM	136 nM
O=C(c1ccc(Cl)c(Cn2c(=O)[nH]c(=O)c3ccccc32)c1)N1CCN(c2ncccn2)CC1 [Example 56, 1-(6-Chloro-3-(4-(pyrimidin-2-yl)piperazine-1-carbonyl)benzyl)quinazoline-2,4(1H,3H)-dione]	16 nM	1180 nM	30 nM
O=C(c1cc(Cn2c(=O)[nH]c(=O)c3ccccc32)ccc1F)N1CCN(c2cnccn2)CC1 [Example 42, 1-(4-Fluoro-3-(4-(pyrazin-2-yl)piperazine-1-carbonyl)benzyl)quinazoline-2,4(1H,3H)-dione]	11 nM	2540 nM	78 nM
O=C(c1cccc(Cn2c(=O)[nH]c(=O)c3ccccc32)c1)N1CCN(c2cnccn2)CC1 [Example 20, 1-(3-(4-(Pyrazin-2-yl)piperazine-1-carbonyl)benzyl)quinazoline-2,4(1H,3H)-dione]	139 nM	4940 nM	391 nM
O=C(c1cccs1)N1CCN(C(=O)c2cc(Cn3c(=O)[nH]c(=O)c4ccccc43)ccc2F)CC1 [Example 46, 1-(4-Fluoro-3-(4-(thiophene-2-carbonyl)piperazine-1-carbonyl)benzyl)quinazoline-2,4(1H,3H)-dione]	6.6 nM	446 nM	21 nM
O=C(c1cc(Cn2c(=O)[nH]c(=O)c3ccccc32)ccc1Cl)N1CCN(c2ncccn2)CC1 [Example 65, 1-(4-Chloro-3-(4-(pyrimidin-2-yl)piperazine-1-carbonyl)benzyl)quinazoline-2,4(1H,3H)-dione]	373 nM	3190 nM	417 nM
O=C(c1cccc(Cn2c(=O)[nH]c(=O)c3cc(F)ccc32)c1)N1CCN(c2ccccn2)CC1 [Example 140, 6-Fluoro-1-(3-(4-(pyridin-2-yl)piperazine-1-carbonyl)benzyl)quinazoline-2,4(1H,3H)-dione]	8.9 nM	155 nM	37 nM
O=C(c1cccc(Cn2c(=O)[nH]c(=O)c3ccccc32)c1)N1CCN(c2nsc3ccccc23)CC1 [Example 27, 1-(3-(4-(Benzo[d]isothiazol-3-yl)piperazine-1-carbonyl)benzyl)quinazoline-2,4(1H,3H)-dione]	51 nM	281 nM	83 nM
O=C(c1cc(Cn2c(=O)[nH]c(=O)c3ccccc32)ccc1F)N1CCN(c2nccs2)CC1 [Example 190, 1-(4-Fluoro-3-(4-(thiazol-2-yl)piperazine-1-carbonyl)benzyl)quinazoline-2,4(1H,3H)-dione]	–	1380 nM	21 nM
O=C(c1ccc(F)c(Cn2c(=O)[nH]c(=O)c3c(F)cccc32)c1)N1CCN(C(=O)c2ccco2)CC1 [Example 184, 5-Fluoro-1-(6-fluoro-3-(4-(furan-2-carbonyl)piperazine-1-carbonyl)benzyl)quinazoline-2,4(1H,3H)-dione]	18 nM	–	62 nM
